Tests used:
Type in all cases: cell-based
hTRPV1 = hTRPV1 (Homo sapiens, UniProt Q8NER1); experiment: Patch clamp selectivity, hTRPV1; settings: hTRPV1 vs TRPA1
Protocol: (§1) Data for TRPA1 inhibition and the selectivity of TRPA1 inhibition was obtained by this method for the compound of Formula (Ia) and included in Table 1 and Table 2. All currents were recorded in whole-cell configuration using EPC-9 and EPC-10 amplifiers and Patchmaster software (HEKA). […] The standard pipette solution consisted of 140 mM CsAsp, 10 mM EGTA, 10 mM HEPES, 2.27 mM MgCl2, 1.91 mM CaCl2, 4 mM MgATP, and 0.1-0.3 mM Na2GTP, with pH adjusted to 7.2 with CsOH. In addition, a solution containing 145 mM CsCl, 10 mM HEPES, 10 mM EGTA and 1 mM MgCl2 (pH 7.2 adjusted with CsOH) can be used. The standard bath solution contained 150 mM NaCl, 10 mM HEPES, 10 mM glucose, 4.5 mM KCl, 1 mM EGTA, 3 mM MgCl2, with pH adjusted to 7.4 with NaOH. In some instances, 2 mM CaCl2 was added in place of EGTA and the concentration of MgCl2 was reduced to 1 mM.
(§2) Data were collected either by continuous recordings at −60 mV or by applying voltage ramps from a holding potential of 0 mV every 4 s. […] Inward and outward currents were analyzed from the ramps at −80 and 80 mV, respectively. […]
(§3) Solutions were switched using a gravity-fed continuous focal perfusion system. […] Temperatures were confirmed using a thermistor (Warner Instruments, TA-29), with temperatures at the recorded cell estimated to be within +/−2° C. of those reported. […]

hTRPV3 = target: T1, hTRPV3 (Homo sapiens, UniProt Q8NET8); experiment: Patch clamp selectivity, hTRPV3; settings: hTRPV3 vs TRPA1
T1 sequence (Q8NET8 1-790): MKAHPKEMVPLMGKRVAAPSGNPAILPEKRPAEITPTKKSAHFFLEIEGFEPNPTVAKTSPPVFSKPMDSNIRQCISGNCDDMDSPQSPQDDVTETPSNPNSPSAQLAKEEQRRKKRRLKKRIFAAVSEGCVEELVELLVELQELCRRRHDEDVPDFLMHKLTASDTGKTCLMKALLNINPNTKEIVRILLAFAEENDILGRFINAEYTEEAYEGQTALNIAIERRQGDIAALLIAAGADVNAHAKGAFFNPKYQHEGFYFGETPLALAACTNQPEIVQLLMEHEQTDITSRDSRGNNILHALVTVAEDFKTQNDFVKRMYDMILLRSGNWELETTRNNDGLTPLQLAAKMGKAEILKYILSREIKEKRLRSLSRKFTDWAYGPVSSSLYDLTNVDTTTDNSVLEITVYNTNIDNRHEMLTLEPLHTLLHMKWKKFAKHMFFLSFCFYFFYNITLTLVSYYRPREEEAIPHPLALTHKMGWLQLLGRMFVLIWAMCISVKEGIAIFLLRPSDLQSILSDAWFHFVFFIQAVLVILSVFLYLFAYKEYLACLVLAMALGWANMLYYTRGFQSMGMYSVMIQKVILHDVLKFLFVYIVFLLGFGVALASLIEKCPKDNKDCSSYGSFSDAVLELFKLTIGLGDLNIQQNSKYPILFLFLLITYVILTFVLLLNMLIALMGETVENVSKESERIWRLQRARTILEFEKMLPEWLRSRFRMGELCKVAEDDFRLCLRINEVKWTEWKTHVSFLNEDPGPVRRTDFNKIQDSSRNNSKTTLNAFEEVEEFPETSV
Protocol: as §1, §2, §3

hTRPC5 = target: T2, hTRPC5 (Homo sapiens, UniProt Q9UL62); experiment: Patch clamp selectivity, hTRPC5; settings: hTRPC5 vs TRPA1
T2 sequence (Q9UL62 1-973): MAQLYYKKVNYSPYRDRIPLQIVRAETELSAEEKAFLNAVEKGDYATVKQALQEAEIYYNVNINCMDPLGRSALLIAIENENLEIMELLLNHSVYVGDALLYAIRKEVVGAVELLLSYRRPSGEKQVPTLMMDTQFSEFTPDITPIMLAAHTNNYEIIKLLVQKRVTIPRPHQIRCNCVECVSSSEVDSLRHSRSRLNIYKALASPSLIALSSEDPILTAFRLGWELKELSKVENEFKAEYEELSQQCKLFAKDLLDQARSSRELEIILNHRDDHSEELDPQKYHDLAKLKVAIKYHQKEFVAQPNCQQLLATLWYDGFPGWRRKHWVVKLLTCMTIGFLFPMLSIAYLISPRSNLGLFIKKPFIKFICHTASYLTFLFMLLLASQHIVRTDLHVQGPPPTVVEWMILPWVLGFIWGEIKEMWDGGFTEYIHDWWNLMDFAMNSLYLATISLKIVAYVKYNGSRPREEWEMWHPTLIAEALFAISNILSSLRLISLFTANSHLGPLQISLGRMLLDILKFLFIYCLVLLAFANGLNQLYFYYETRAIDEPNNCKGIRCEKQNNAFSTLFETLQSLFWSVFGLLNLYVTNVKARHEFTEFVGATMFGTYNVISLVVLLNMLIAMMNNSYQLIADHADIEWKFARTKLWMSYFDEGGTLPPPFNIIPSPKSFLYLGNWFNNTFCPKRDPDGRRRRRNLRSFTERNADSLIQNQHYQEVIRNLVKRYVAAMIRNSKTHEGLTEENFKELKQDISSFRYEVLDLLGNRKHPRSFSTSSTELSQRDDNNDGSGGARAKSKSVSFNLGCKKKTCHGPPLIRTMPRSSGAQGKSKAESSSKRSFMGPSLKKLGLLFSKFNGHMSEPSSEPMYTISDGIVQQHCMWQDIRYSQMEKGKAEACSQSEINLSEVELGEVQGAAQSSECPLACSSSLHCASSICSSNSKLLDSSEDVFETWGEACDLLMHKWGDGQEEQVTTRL
Protocol: as §1, §2, §3

hERG = hERG (Homo sapiens, UniProt Q12809); experiment: Patch clamp selectivity, hERG; settings: hERG vs TRPA1
Protocol: as §1, §2, §3

hNav1.2 = hNav1.2 (Homo sapiens, UniProt Q99250); experiment: Patch clamp selectivity, hNav1.2; settings: hNav1.2 vs TRPA1
Protocol: as §1, §2, §3

Sequence of hNav1.2 (Q99250 whole entry): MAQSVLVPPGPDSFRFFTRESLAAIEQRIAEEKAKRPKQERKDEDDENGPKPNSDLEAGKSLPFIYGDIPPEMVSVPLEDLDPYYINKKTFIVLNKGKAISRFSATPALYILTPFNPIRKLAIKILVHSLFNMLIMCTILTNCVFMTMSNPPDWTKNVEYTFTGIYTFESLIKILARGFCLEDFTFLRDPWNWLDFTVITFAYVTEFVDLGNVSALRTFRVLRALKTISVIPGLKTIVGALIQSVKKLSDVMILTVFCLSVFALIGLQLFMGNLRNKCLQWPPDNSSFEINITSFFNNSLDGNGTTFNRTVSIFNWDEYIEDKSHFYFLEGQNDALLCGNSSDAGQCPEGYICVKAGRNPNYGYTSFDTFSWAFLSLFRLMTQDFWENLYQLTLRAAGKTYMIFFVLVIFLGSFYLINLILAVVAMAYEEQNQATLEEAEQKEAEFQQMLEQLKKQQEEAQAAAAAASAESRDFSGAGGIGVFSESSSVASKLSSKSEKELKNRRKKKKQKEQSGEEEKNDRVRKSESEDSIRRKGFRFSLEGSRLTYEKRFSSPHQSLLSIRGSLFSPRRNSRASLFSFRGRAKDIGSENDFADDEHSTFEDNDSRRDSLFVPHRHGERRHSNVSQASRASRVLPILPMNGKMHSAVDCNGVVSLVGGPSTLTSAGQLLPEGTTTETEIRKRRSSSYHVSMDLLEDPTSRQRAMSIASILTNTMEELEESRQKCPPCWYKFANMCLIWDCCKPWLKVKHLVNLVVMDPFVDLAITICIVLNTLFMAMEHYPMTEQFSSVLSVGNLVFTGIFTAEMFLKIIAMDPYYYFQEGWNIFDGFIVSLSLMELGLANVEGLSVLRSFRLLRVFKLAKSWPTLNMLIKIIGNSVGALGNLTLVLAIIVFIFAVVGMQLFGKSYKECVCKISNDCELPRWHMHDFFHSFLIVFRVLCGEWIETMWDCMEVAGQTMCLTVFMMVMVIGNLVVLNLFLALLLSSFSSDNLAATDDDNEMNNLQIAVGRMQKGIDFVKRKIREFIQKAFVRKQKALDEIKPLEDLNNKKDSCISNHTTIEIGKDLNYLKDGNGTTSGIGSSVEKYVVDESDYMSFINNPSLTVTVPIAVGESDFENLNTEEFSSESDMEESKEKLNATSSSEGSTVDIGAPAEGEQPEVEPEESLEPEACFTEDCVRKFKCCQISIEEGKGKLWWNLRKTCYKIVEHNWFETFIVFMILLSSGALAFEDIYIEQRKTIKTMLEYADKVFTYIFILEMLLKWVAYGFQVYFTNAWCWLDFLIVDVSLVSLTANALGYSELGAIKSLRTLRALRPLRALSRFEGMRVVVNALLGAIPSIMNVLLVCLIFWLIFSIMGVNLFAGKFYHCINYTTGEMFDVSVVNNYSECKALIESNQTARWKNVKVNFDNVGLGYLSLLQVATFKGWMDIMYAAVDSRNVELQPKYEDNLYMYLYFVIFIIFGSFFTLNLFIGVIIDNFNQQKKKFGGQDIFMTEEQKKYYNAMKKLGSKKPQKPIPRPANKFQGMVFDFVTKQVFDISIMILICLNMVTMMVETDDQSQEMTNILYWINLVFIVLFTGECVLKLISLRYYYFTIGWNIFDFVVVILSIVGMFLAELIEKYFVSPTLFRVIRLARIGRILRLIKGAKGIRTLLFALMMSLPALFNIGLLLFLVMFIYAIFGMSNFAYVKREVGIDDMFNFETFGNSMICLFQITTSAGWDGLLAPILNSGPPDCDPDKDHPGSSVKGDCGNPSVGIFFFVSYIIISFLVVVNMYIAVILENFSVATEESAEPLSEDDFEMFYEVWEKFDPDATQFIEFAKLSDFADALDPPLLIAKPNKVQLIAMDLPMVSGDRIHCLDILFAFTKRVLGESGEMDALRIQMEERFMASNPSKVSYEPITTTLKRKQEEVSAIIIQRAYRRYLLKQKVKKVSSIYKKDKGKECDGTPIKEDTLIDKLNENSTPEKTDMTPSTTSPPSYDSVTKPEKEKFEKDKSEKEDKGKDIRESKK
Sequence of hTRPV1 (Q8NER1 whole entry): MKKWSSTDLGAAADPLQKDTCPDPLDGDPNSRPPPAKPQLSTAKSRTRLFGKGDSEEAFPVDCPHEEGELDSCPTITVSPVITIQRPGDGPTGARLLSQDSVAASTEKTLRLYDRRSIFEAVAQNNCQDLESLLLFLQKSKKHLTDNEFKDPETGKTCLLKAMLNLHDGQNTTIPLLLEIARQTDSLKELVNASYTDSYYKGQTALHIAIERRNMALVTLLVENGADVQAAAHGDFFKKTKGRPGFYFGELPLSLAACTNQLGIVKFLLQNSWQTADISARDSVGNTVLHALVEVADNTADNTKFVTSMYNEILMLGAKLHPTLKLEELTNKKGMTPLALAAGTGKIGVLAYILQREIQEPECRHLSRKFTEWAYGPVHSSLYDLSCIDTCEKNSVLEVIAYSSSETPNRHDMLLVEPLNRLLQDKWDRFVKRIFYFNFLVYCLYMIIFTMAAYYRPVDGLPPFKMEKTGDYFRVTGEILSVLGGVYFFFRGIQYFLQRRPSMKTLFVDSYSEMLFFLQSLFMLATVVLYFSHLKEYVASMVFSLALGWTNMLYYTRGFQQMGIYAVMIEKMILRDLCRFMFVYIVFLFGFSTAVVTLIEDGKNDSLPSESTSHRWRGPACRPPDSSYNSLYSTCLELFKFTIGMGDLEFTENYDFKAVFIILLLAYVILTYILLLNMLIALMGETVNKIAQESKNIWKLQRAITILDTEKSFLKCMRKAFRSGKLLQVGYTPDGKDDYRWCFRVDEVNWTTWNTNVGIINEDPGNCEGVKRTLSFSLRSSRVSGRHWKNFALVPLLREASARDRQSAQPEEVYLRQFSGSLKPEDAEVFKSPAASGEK
Sequence of hERG (Q12809 whole entry): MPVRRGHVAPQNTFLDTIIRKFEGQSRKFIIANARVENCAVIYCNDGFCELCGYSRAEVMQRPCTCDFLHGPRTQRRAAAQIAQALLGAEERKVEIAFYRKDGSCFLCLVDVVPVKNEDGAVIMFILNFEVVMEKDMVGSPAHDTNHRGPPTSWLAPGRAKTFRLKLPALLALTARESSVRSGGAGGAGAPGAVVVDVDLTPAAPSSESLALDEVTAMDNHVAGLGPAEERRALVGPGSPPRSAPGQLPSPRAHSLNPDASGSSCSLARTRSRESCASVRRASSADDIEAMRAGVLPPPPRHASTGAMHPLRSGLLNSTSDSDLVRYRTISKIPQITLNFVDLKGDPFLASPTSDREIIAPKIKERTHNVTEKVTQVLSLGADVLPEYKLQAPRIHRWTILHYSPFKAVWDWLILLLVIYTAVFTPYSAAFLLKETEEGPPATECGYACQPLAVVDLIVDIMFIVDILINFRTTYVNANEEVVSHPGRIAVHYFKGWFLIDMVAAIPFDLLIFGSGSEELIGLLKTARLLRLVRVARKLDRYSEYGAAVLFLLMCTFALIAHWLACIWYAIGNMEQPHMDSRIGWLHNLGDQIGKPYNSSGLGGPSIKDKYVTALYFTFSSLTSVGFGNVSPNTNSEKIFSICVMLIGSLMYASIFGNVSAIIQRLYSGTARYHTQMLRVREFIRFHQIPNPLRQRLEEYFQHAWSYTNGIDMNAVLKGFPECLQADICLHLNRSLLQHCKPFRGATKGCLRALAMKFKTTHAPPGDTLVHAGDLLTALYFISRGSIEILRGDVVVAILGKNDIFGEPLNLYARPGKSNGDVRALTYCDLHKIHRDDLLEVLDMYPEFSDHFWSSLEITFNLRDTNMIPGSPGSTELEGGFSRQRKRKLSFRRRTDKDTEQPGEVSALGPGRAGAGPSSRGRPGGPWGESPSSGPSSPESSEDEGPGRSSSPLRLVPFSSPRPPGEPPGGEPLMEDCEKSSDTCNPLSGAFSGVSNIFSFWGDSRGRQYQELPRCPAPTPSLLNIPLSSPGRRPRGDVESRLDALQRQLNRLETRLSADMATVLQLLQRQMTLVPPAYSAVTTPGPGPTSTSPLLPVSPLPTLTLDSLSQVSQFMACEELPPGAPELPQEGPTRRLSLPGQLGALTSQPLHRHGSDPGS

Fold Selectivity Compared to TRPA1 (hTRPV1): >100 Fold
Fold Selectivity Compared to TRPA1 (hTRPV3): >300 Fold
Fold Selectivity Compared to TRPA1 (hTRPC5): >100 Fold
Fold Selectivity Compared to TRPA1 (hNav1.2): >100 Fold
Compound: C[C@H]1CCCN1c1ncc(-c2cccc(NC(=O)Cn3cnc4c3c(=O)n(C)c(=O)n4C)n2)cn1 [Formula (Ia)]
Fold Selectivity Compared to TRPA1 (hERG): >100 Fold

— patent publication US9193729B2, “Inhibiting transient receptor potential ion channel TRPA1” (Cubist Pharmaceuticals, Inc., priority 2011, dated 2015)
